Measurements: US10898504B2, “Substituted nucleoside analogues for use as PRMT5 inhibitors” (Janssen Pharmaceutica NV, priority 2016, dated 2021)
“And” between values parts separate entries of the source, which are not always exact repeats. Equal entries are not always repeated.

Key:
PRMT5-MEP50 enzyme = biological target: T1, PRMT5-MEP50 enzyme (Homo sapiens, UniProt O14744); assay: In vitro assay (Assay 1): PRMT5-MEP50 high throughput mass spectrometer assay, inhibition of SAH formation; format: biochemical; conditions: individual measurements shown, read-out: pIC50 Assay 1 (converted)
T1 construct: One virus expresses full length human PRMT5 with Flag-tag at N-terminus
T1 sequence (O14744 whole entry): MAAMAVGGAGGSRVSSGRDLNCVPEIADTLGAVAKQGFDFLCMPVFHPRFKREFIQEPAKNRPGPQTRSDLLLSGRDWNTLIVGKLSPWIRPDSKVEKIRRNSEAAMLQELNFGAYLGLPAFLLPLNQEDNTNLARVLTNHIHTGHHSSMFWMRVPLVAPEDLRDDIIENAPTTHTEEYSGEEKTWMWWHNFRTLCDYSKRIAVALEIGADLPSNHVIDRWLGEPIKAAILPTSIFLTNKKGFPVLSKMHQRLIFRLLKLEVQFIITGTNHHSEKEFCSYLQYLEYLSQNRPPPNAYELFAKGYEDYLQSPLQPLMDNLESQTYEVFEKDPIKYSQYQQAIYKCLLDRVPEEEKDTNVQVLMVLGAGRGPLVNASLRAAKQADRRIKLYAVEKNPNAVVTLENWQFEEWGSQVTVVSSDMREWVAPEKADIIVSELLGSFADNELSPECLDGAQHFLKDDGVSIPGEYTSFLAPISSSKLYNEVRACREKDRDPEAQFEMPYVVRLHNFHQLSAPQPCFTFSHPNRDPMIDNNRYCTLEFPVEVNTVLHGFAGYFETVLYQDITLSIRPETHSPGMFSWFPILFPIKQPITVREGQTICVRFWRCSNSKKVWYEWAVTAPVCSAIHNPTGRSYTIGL
T1 sequence (Q9BQA1 whole entry partner): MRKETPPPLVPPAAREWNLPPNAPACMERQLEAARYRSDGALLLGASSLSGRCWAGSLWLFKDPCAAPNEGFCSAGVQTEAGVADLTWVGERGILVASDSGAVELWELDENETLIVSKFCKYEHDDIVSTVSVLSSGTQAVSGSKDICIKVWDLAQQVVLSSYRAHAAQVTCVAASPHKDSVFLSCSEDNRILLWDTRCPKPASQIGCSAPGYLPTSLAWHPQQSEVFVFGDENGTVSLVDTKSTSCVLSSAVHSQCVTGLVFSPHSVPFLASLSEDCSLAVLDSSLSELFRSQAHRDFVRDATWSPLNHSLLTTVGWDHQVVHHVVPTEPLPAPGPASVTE
Text: EXPERIMENTAL PROCEDURES IN VITRO ASSAY (ASSAY 1)
PRMT5-MEP50 enzyme was purchased from Charles River (Argenta). The enzyme complex was produced in insect cells (Sf9) infected simultaneously with two baculoviruses. One virus expresses full length human PRMT5 with Flag-tag at N-terminus, the second virus expresses full length MEP50 with His6-TEV cleavage at N-terminus. The protein was affinity purified using anti-Flag (M2) beads eluted with 3×FLAG peptide, followed by His-Select eluted with 0.5M imidazole. Eluted protein was then dialysed against tris-buffered saline (TBS) (pH 8.0) containing 20% glycerol and 3 mM dithiothreitol (DTT).
Full-length untagged human recombinant histone H2A (residues 1-130, Genbank Accession #NM_021052, MW=14.1 kDa) expressed in E. coli was purchased from Reaction Biology Corporation, Cat #HMT-11-146. Reagents used for making reaction buffer or stopping reaction were purchased including Tris base (Sigma Cat #T-1503), NaCl (Sigma Cat #RGF-3270), MgCl2 (Sigma Cat #M0250), DTT (Invitrogen Cat #15508-013) and Formic Acid (Riedel deHaen, Cat #33015)
High Throughput Mass Spectrometer Assay
PRMT5 catalyzes the sequential methylations of the terminal nitrogen atoms on the guanidine groups of arginine residues within proteins using co-substrate S-adenosyl-L-methionine (AdoMet, SAM), forming mono-methyl (MMA), symmetric-dimethyl arginine (sDMA) and S-adenosyl-L-homocysteine (AdoHcy, SAH). The enzyme activity was determined by following the product SAH formation using high throughput mass spectrometry (Agilent Rapidfire 300 System coupled to a Sciex 4000 series QTrapm triple-quad MS/MS). The reaction buffer was 20 mM Tris-HC, pH 8.5, 50 mM NaCl, 5 mM MgCl2 and 1 mM DTT. The reaction activity was stopped using 1% formic acid (final concentration).
The IC50 Studies were performed using eleven point dosing series made for each compound by serially diluted 1:2 in dimethyl sulfoxide (DMSO), with point 12 being a DMSO control. Compounds were first spotted to plates, and followed by addition of 2 μM SAM and 0.6 μM H2A (histone H2A) solution mixture. The same volume of enzyme solution was added to initiate the enzymatic reactions. The final concentrations of the reaction are at 1 μM SAM, 0.3 μM H2A and 10 nM enzyme. The reaction was incubated at 30° C. for 60 minutes (min) and then quenched by addition of formic acid to a final concentration of 1%. The inhibitions of SAH formation in the presence of compounds were calculated as a percentage of the control relative to the uninhibited reaction as a function of inhibitor concentration. The data were fit as follows: Y=Bottom+(Top−Bottom)/(1+10^((log IC50−X)*h))
where IC50 is the inhibitor concentration (same unit as X) at 50% inhibition and h is the Hill slope. Y is percent of inhibition, X is log of compound concentration. Bottom and Top are the plateaus in same units as Y.

A549 cells = assay: PD assay (Assay 2): inhibition of nuclear symmetric Arginine dimethylation (SYM10 immunohistochemistry) in A549 cells; format: cell-based; conditions: individual measurements shown; for IC50: Homo sapiens, A549, PD assay in A549 cells, read-out: pIC50 Assay 2 (converted); for pIC50 Assay 2: PD assay in A549 cells
Protocol: EXPERIMENTAL PROCEDURE PD ASSAY (ASSAY 2)
A549 cells (ATCC, Cat #CCL-185) were cultured in Dulbecco's Modified Eagle's Medium (DMEM) (Sigma, Cat #D5796), supplemented with 10% Fetal Calf Serum (FCS)(HyClone™, Cat #SV30160.03), 100 mM Sodium Pyruvate (Sigma, Cat #S8636), 200 mM L-Glutamine (Sigma, Cat #G7513) and 50 mg/mL Gentamycing (Gibco, Cat #15750-037).
Reagents used for buffers were purchased: Dulbecco's phosphate buffered saline (DPBS) without Ca/Mg (Sigma, Cat #D8537), phosphate buffered saline (PBS) 10× (Roche, Cat #11 666 789 001), Formalin solution 10% (Sigma, HT50-1-128-4L), MeOH 100% (Sigma, Cat #32213-2.5L), Triton X-100 (Acros, Cat #215680010), Bovine Serum Albumin (BSA) (Sigma, Cat #A2153), Alexa fluor 488 goat anti-rabbit antibody (Life Technologies, Cat #A11034), HCS CellMask Deep Red Stain (Life Technologies, Cat #H32721), Hoechst Stain (Life Technologies, Cat #33258), Anti-dimethyl-Arginine, sym (SYM10) antibody (Millipore, 07-412).
Immunohistochemistry Procedure
Cells were plated at 400 cells/40 μL/well in 384 well black plates μclear bottom (Perkin Elmer) and overnight incubated at 37° C., 5% CO2. The IC50 Studies were performed using nine point dosing series ranging from 10 μM to […] for each compound. 80 nL of the respective dilution of the compounds was added using the Labcyte POD 810 (Labcyte) reaching a final DMSO concentration of 0.2% in cell culture. After an incubation period of 48 h at 37° C. and 5% CO2, cells were fixed in 10% formalin solution for 15 min at r.t. and 20 min in ice-cold MeOH, after which they were washed 3× in DPBS. Subsequently, the cells were blocked for 1 h in blocking buffer (PBS+1% BSA and 0.5% Triton X-100) and incubated overnight at 4° C. with the SYM10 antibody diluted 1/2000 in blocking buffer. The cells were washed 3× with washing buffer (PBS+0.1% Triton X-100) and incubated with the Alexa fluor 488 goat anti-rabbit antibody diluted 1/200 in blocking buffer for 1 h at r.t. Subsequently, they were washed 3× with washing buffer and incubated for 30 min at r.t. with PBS containing a 1/5000 dilution of Hoechst Stain and a 1/5000 dilution of the HCS CellMask Deep Red Stain. After a final wash with PBS, the plates were imaged using the 10×W lens of the Opera® system (Perkin Elmer Life Sciences) using following settings (values in nm):
In the above equations, the following variable names are use: […]
In the above equations, the following controls were used for normalization: […]
Low control: minimum level of symmetrically dimethylated Arginines (cells treated with reference compound at 10 μM).
High control: maximum level of symmetrically dimethylated Arginines (DMSO treated cells).
IC50 and pIC50 (−log IC50) values were calculated using the appropriate software.
pIC50 values (Co. No. means compound number; n.d. means not determined).

IC50 (PRMT5-MEP50 enzyme)	IC50 (A549 cells) [nM]	pIC50 Assay 2 (A549 cells)	SMILES
43.7 nM and 11.5 nM		6.93 and 7.24	Nc1ncnc2c1ccn2[C@@H]1O[C@H](CN2CCCC23CCNCC3)[C@@H](O)[C@H]1O [Compound 19]
11.7 nM	~67.6		Nc1ncnc2c1c(F)cn2[C@@H]1O[C@H](CN2CCCC23CCNCC3)[C@@H](O)[C@H]1O [Compound 24]
26.3 nM	1150		Cc1nc(N)c2ccn([C@@H]3O[C@H](CN4CCCC45CCNCC5)[C@@H](O)[C@H]3O)c2n1 [Compound 28]
10.2 nM and 7.59 nM	~60.3	~7.35	Nc1ncnc2c1ccn2[C@@H]1O[C@H](CN2CC(F)(F)CC23CCNCC3)[C@@H](O)[C@H]1O [Compound 29]
200 nM	1740		Cc1nc(N)c2ccn([C@@H]3O[C@H](CN4CCCC45CCN(C)CC5)[C@@H](O)[C@H]3O)c2n1 [Compound 30]
39.8 nM	~1450		Nc1ncnc2c1ccn2[C@@H]1O[C@H](CN2CCOC3(CNC3)C2)[C@@H](O)[C@H]1O [Compound 31]
4470 nM	9120		Nc1ncnc2c1ccn2[C@@H]1O[C@H](CN2CCOC3(CCCNC3)C2)[C@@H](O)[C@H]1O (some centres unmarked) [Compound 32]
170 nM	5370		Nc1ncnc2c1ccn2[C@@H]1O[C@H](CN2CCCC3(COCCN3)C2)[C@@H](O)[C@H]1O (some centres unmarked) [Compound 37]
1620 nM	3890		Nc1ncnc2c1ccn2[C@@H]1O[C@H](CN2CCC3(CNCCC3(F)F)C2)[C@@H](O)[C@H]1O (some centres unmarked) [Compound 38]
6.31 nM	407		Nc1ncnc2c1ccn2[C@@H]1O[C@H](CN2CCCC3(CCNC3)C2)[C@@H](O)[C@H]1O (some centres unmarked) [Compound 40]
5750 nM	> 10000		Nc1ncnc2c1ccn2[C@@H]1O[C@H](CN2CC(C(F)(F)F)CC23CCNCC3)[C@@H](O)[C@H]1O (some centres unmarked) [Compound 41]
83.2 nM	~741		Nc1ncnc2c1ccn2[C@@H]1O[C@H](CN2CCCC3(CNC3)C2)[C@@H](O)[C@H]1O [Compound 45]
21.4 nM	1000		NCC1CCCN(C[C@H]2O[C@@H](n3ccc4c(N)ncnc43)[C@H](O)[C@@H]2O)C1 (some centres unmarked) [Compound 51]
28.8 nM	891		Nc1ncnc2c1ccn2[C@@H]1O[C@H](CN2CCCC(N)C2)[C@@H](O)[C@H]1O (some centres unmarked) [Compound 53]
28.8 nM	1150		NCC1CCCN1C[C@H]1O[C@@H](n2ccc3c(N)ncnc32)[C@H](O)[C@@H]1O (some centres unmarked) [Compound 60]
129 nM	> 10000		Nc1nccc2c1ccn2[C@@H]1O[C@H](CN2CCCC23CCNCC3)[C@@H](O)[C@H]1O [Compound 61]
501 nM	> 10000		O[C@@H]1[C@H](O)[C@@H](CN2CCCC23CCNCC3)O[C@H]1n1cnc2cncnc21 [Compound 62]
56.2 nM	955		CN1CCC2(CCCN2C[C@H]2O[C@@H](n3ccc4c(N)nc(Cl)nc43)[C@H](O)[C@@H]2O)CC1 [Compound 65]
603 nM	6760		CN1CCC2(CCCN2C[C@H]2O[C@@H](n3ccc4c(N)nccc43)[C@H](O)[C@@H]2O)CC1 [Compound 66]
229 nM	~1950		Nc1ncnc2c([C@@H]3O[C@H](CN4CCCC45CCNCC5)[C@@H](O)[C@H]3O)cnn12 [Compound 68]

More lines, now with the values behind:

SMILES	IC50 (PRMT5-MEP50 enzyme)	IC50 (A549 cells) [nM]	pIC50 Assay 2 (A549 cells)
CN1CCC2(CC1)CCN(C[C@H]1O[C@@H](n3cnc4c(N)ncnc43)[C@H](O)[C@@H]1O)C2 [Compound 16]	22400 nM	> 10000	
CN1CC2(CCN2C[C@H]2O[C@@H](n3cnc4c(N)ncnc43)[C@H](O)[C@@H]2O)C1 [Compound 18]	8510 nM	> 10000	
C[C@@]1(O)[C@H](O)[C@@H](CN2CCCC23CCNCC3)O[C@H]1n1cnc2c(N)ncnc21 [Compound 27]	1350 nM	> 10000	
NCCC1CN(C[C@H]2O[C@@H](n3ccc4c(N)ncnc43)[C@H](O)[C@@H]2O)CCO1 (some centres unmarked) [Compound 47]	692 nM	> 10000	
NCC1CN(C[C@H]2O[C@@H](n3ccc4c(N)ncnc43)[C@H](O)[C@@H]2O)CCO1 (some centres unmarked) [Compound 48]	145 nM	~2570	
NC[C@H]1COCCN1C[C@H]1O[C@@H](n2ccc3c(N)ncnc32)[C@H](O)[C@@H]1O [Compound 49]	120 nM	~5130	
NCC1CCC(F)(F)CN1C[C@H]1O[C@@H](n2ccc3c(N)ncnc32)[C@H](O)[C@@H]1O (some centres unmarked) [Compound 50]	44.7 nM	1510	
NCC1CCCCN1C[C@H]1O[C@@H](n2ccc3c(N)ncnc32)[C@H](O)[C@@H]1O (some centres unmarked) [Compound 52]	10.2 nM	~1120	
Nc1ncnc2c1ccn2[C@@H]1O[C@H](CN2CCC(N)C2)[C@@H](O)[C@H]1O (some centres unmarked) [Compound 54]	1550 nM	> 10000	
NCCC1CCN(C[C@H]2O[C@@H](n3ccc4c(N)ncnc43)[C@H](O)[C@@H]2O)C1 (some centres unmarked) [Compound 55]	309 nM	6170	
NCC1CCN(C[C@H]2O[C@@H](n3ccc4c(N)ncnc43)[C@H](O)[C@@H]2O)C1 (some centres unmarked) [Compound 56]	186 nM	~10000	
NCC[C@@H]1CCCN1C[C@H]1O[C@@H](n2ccc3c(N)ncnc32)[C@H](O)[C@@H]1O [Compound 57]	11.2 nM	158	
NCC[C@H]1CCCN1C[C@H]1O[C@@H](n2cnc3c(N)ncnc32)[C@H](O)[C@@H]1O [Compound 58]	724 nM	~6920	
NCC[C@@H]1CCCN1C[C@H]1O[C@@H](n2cnc3c(N)ncnc32)[C@H](O)[C@@H]1O [Compound 59]	44.7 nM	2400	
O[C@@H]1[C@H](O)[C@@H](CN2CC(F)(F)CC23CCN(C2CC2)CC3)O[C@H]1n1ccc2c(Cl)ncnc21 [Compound 67]	1860 nM	~6170	
